In ChEMBL document CHEMBL1201862, “PubChem BioAssay data set” (2004):
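Tested at 5 concentrations; 48 h exposure; 96-well plates; endpoints linearly interpolated, else capped at highest concentration. At the GI50, growth is halved.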 Activity calls are given as the source filed them. Rule as the data show it: active = GI50 up to about 1.1 µM and inactive = higher.

Key:
Assay in all cases: NCI tumour cell line growth inhibition, 48 h
SK-MEL-28 = system: SK-MEL-28
SK-MEL-2 = system: SK-MEL-2
SNB-19 = system: SNB-19
NCI-H522 = system: NCI-H522
OVCAR-8 = system: OVCAR-8
SF-539 = system: SF-539
NCI/ADR-RES = system: NCI/ADR-RES
HT-29 = system: HT-29
CAKI-1 = system: CAKI-1
SK-OV-3 = system: SK-OV-3
NCI-H23 = system: NCI-H23
ACHN = system: ACHN
SNB-75 = system: SNB-75
A549 = system: A549
SF-295 = system: SF-295
MDA-MB-231 = system: MDA-MB-231
T47D = system: T47D
HOP-62 = system: HOP-62
MDA-MB-435 = system: MDA-MB-435
MCF7 = system: MCF7

Measured: GI50

CCC1(CC)C(=O)OC(=O)C1(CC)CC
inactive: SK-MEL-28 > 100 µM | SK-MEL-2 > 100 µM | SNB-19 > 100 µM | NCI-H522 > 100 µM | OVCAR-8 > 100 µM | SF-539 > 100 µM | NCI/ADR-RES > 100 µM | HT-29 > 100 µM | CAKI-1 > 100 µM | SK-OV-3 > 100 µM | NCI-H23 > 100 µM | ACHN > 100 µM | SNB-75 > 100 µM | A549 > 100 µM | SF-295 > 100 µM | MDA-MB-231 > 100 µM | T47D > 100 µM | HOP-62 > 100 µM | MDA-MB-435 > 100 µM

C[C@]12CC[C@H]3[C@@H](CCC4=C(Br)C(=O)C=C[C@@]43O)[C@@H]1CCC2=O
inactive: SK-MEL-28 94.2 µM | SK-MEL-2 40.9 µM | SNB-19 61 µM | NCI-H522 13 µM | OVCAR-8 25.8 µM | SF-539 53.7 µM | NCI/ADR-RES 27.2 µM | HT-29 36 µM | CAKI-1 31.6 µM | SK-OV-3 > 100 µM | NCI-H23 17.8 µM | ACHN 40.6 µM | MCF7 38.9 µM | A549 59.7 µM | SF-295 74.1 µM | MDA-MB-231 82 µM | HOP-62 50 µM | MDA-MB-435 33.7 µM

CC1=NNC(=O)C1C1CC(c2c[nH]c3ccccc23)=NNC1=S (stereo not given)
inactive: SK-MEL-28 > 100 µM | SK-MEL-2 > 100 µM | SNB-19 > 100 µM | NCI-H522 > 100 µM | OVCAR-8 > 100 µM | SF-539 > 100 µM | NCI/ADR-RES > 100 µM | HT-29 > 100 µM | CAKI-1 > 100 µM | SK-OV-3 > 100 µM | NCI-H23 64 µM | ACHN > 100 µM | SNB-75 > 100 µM | A549 > 100 µM | SF-295 > 100 µM | MDA-MB-231 > 100 µM | T47D 82.2 µM | HOP-62 > 100 µM | MDA-MB-435 94.4 µM

O=C1c2ccccc2C(=O)c2c1c1cc(O)ccc1n2Cc1ccc(Cl)cc1Cl
inactive: SK-MEL-28 17.3 µM | SK-MEL-2 16 µM | SNB-19 13.4 µM | OVCAR-8 4.57 µM | SF-539 3.97 µM | NCI/ADR-RES 3.08 µM | HT-29 16.6 µM | CAKI-1 3.9 µM | SK-OV-3 1.75 µM | NCI-H23 7.23 µM | MCF7 4.11 µM | A549 3.27 µM | SF-295 7.5 µM | MDA-MB-231 3.85 µM | HOP-62 2.61 µM | MDA-MB-435 9.42 µM

CC1CC(NN)=Nc2ccccc2N1 (stereo not given)
inactive: SK-MEL-28 > 100 µM | SK-MEL-2 > 100 µM | SNB-19 > 100 µM | NCI-H522 > 100 µM | OVCAR-8 > 100 µM | NCI/ADR-RES > 100 µM | HT-29 > 100 µM | CAKI-1 > 100 µM | SK-OV-3 > 100 µM | NCI-H23 > 100 µM | ACHN > 100 µM | A549 > 100 µM | SF-295 > 100 µM | MDA-MB-231 > 100 µM | HOP-62 > 100 µM | MDA-MB-435 > 100 µM

NC1=NS(=O)(=O)Nc2nc(-c3ccc([N+](=O)[O-])cc3)[nH]c21
inactive: SK-MEL-28 > 100 µM | SK-MEL-2 > 100 µM | SNB-19 > 100 µM | NCI-H522 > 100 µM | OVCAR-8 > 100 µM | SF-539 > 100 µM | HT-29 > 100 µM | CAKI-1 > 100 µM | SK-OV-3 > 100 µM | NCI-H23 > 100 µM | ACHN > 100 µM | SNB-75 > 100 µM | A549 > 100 µM | SF-295 > 100 µM | HOP-62 > 100 µM

C[C@]12CC/C(=N\O)C=C1CC[C@@H]1C2CC[C@@]2(C)C1CC[C@@H]2OC1CCCCO1 (stereo not given in full)
inactive: SK-MEL-28 22.7 µM | SK-MEL-2 16.7 µM | SNB-19 18.3 µM | NCI-H522 17.4 µM | OVCAR-8 > 100 µM | SF-539 > 10 µM | HT-29 14.3 µM | CAKI-1 > 10 µM | SK-OV-3 21.9 µM | NCI-H23 17.3 µM | ACHN 16.3 µM | SNB-75 18.9 µM | A549 22.6 µM | SF-295 18.5 µM | HOP-62 31.2 µM

O=C(Cc1csc(-c2nc(CC(=O)NNc3ccccc3)cs2)n1)NNc1ccccc1
inactive: SK-MEL-28 > 100 µM | SK-MEL-2 > 100 µM | SNB-19 > 100 µM | NCI-H522 20.4 µM | OVCAR-8 > 100 µM | SF-539 > 100 µM | HT-29 71.1 µM | CAKI-1 > 100 µM | SK-OV-3 > 100 µM | NCI-H23 > 100 µM | ACHN > 100 µM | SNB-75 > 100 µM | A549 > 100 µM | SF-295 > 100 µM | HOP-62 > 100 µM

COc1ccc(NC(=O)CC/C(CC(=O)c2ccco2)=N/NC(=O)C(N)=O)cc1
inactive: SK-MEL-28 91.2 µM | SK-MEL-2 > 100 µM | SNB-19 56.8 µM | NCI-H522 53 µM | OVCAR-8 > 100 µM | SF-539 > 100 µM | HT-29 > 100 µM | CAKI-1 > 100 µM | SK-OV-3 > 100 µM | NCI-H23 38.3 µM | ACHN > 100 µM | SNB-75 97.5 µM | A549 > 100 µM | SF-295 > 100 µM | HOP-62 > 100 µM

CCC[C@H](O)[C@@H](CNc1cc(NC(C)=O)nc(NC(C)=O)n1)N(Cc1ccccc1)Cc1ccccc1
inactive: SK-MEL-28 42.9 µM | SK-MEL-2 27.4 µM | SNB-19 39.3 µM | NCI-H522 8.75 µM | OVCAR-8 13.7 µM | NCI/ADR-RES 19.3 µM | CAKI-1 18.2 µM | SK-OV-3 19.8 µM | NCI-H23 17.1 µM | ACHN 19.8 µM | SNB-75 13.2 µM | MCF7 8.79 µM | A549 13.2 µM | SF-295 6.44 µM | MDA-MB-231 49.9 µM | HOP-62 15.2 µM | MDA-MB-435 54 µM

CCC(C)(O)c1cn(-c2ccc(Cl)cc2)nn1 (stereo not given)
inactive: SK-MEL-28 > 100 µM | SK-MEL-2 > 100 µM | SNB-19 > 100 µM | NCI-H522 > 100 µM | OVCAR-8 > 100 µM | SF-539 > 100 µM | HT-29 > 100 µM | CAKI-1 > 100 µM | SK-OV-3 > 100 µM | NCI-H23 > 100 µM | ACHN > 100 µM | SNB-75 > 100 µM | A549 > 100 µM | SF-295 > 100 µM | HOP-62 > 100 µM

Cc1cc(C)c(C(=O)c2nnc3ccccc3c2N)c(C)c1
inactive: SK-MEL-28 17 µM | SK-MEL-2 14.9 µM | SNB-19 35.8 µM | NCI/ADR-RES 24.3 µM | HT-29 25.5 µM | CAKI-1 19.3 µM | SK-OV-3 32.4 µM | NCI-H23 22.1 µM | ACHN 23.1 µM | SNB-75 27.5 µM | A549 23.3 µM | MDA-MB-231 16.9 µM | T47D 16.6 µM | HOP-62 13.6 µM | MDA-MB-435 15.8 µM
